Assay results published in patent US9682033B2, “Methods of treating postherpetic neuralgia with a topical formulation of a spiro-oxindole compound” (Teva Pharmaceuticals International GmbH, priority 2015, dated 2017).
“Also recorded” adds a separate entry of the source.

Columns and labels:
[1] = ADME study in the minipig after repeated daily dermal dosing (Biological Example 1); assay type: in vivo, Göttingen minipig; conditions: for mean tissue radioactivity concentration / total radioactivity in tissue: 24 h after [^14C] dermal dose
From the text: On the day prior to the first dermal dose, the dorsum and flanks of each animal were carefully clipped using electric clippers and shaved using an electric rotary head shaver (Phillips). Clipping and shaving was as close as possible to the skin, whilst avoiding damage to the dose site. […] The corners of the treatment area (equivalent to about 6% body surface area, 11 cm×19 cm-12 cm×22 cm) were marked using an indelible pen. The process of hair removal was repeated periodically during the dose administration period as necessary.

CYP450 2C19 (CYP2C19) = CYP450 2C19 (CYP2C19) (Homo sapiens, UniProt P33261); assay: Reaction phenotyping with recombinant human CYP450 enzymes: CYP2C19; assay type: in vitro ADME
Chain of CYP450 2C19 (CYP2C19) (P33261 whole entry): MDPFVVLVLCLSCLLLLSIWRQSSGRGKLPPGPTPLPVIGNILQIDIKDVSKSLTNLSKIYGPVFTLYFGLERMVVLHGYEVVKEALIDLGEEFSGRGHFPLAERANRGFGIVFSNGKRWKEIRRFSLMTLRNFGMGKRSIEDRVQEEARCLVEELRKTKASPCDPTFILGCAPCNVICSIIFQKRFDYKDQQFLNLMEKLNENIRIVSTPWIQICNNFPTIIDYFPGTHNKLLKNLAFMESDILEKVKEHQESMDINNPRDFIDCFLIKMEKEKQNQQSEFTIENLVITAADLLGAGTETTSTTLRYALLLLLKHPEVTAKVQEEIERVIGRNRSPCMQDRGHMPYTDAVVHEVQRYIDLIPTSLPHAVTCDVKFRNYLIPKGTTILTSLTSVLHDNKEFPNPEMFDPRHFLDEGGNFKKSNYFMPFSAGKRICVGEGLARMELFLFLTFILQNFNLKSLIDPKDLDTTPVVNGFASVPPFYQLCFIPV

3A4 (CYP3A4) = 3A4 (CYP3A4) (Homo sapiens, UniProt P08684); assay: Reaction phenotyping with recombinant human CYP450 enzymes: CYP3A4; assay type: in vitro ADME
Chain of 3A4 (CYP3A4) (P08684 whole entry): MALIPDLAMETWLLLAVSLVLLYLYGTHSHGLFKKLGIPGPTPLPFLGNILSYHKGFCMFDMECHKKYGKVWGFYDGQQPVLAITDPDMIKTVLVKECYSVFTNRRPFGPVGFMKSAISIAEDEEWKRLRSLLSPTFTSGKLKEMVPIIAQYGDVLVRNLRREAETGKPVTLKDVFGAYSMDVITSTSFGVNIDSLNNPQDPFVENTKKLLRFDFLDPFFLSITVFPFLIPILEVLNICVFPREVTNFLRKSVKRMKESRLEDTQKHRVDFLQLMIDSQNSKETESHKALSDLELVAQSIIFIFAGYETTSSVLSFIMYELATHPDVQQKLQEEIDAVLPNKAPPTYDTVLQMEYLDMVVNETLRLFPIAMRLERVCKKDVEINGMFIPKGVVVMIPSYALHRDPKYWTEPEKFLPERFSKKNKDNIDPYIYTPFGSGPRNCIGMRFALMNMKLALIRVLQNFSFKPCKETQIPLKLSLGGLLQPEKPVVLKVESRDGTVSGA

[2] = test system: bacterial reverse mutation; assay: Bacterial reverse mutation assay (GLP); assay type: cell-based
From the text: The spiro-oxindole compound was not genotoxic in the standard battery of genotoxicity tests (GLP), including a bacterial reverse mutation assay, an in vitro chromosome aberration assay in cultured human lymphocytes, and an in vivo rat bone marrow micronucleus test.

[3] = Mouse local lymph node assay; assay type: in vivo
CYP2C19 = assay: clinical; conditions: human, in vivo
From the text: This was a single center, open-label, 1-sequence drug-drug interaction study in 32 healthy adult male and female subjects. The study consisted of a 28-day screening period, a 10-day inpatient treatment period, and a follow-up visit. Subjects meeting the study inclusion/exclusion requirements were admitted to the clinical research unit on day −1 and were confined until day 10.
Blood samples were collected for the assessment of the pharmacokinetics of midazolam and omeprazole.
The primary pharmacokinetic endpoints were the geometric mean ratios (90% confidence intervals [CIs]) for Cmax, AUC0-t, and AUC0-inf for midazolam and omeprazole on day 9 versus day 1.
Blood samples were collected for the assessment of the pharmacokinetics of the major metabolites of midazolam (1-OH-midazolam) and omeprazole (5-OH-omeprazole), and for the spiro-oxindole compound. Further secondary pharmacokinetic variables included Cmax, tmax, AUC0-t, AUC0-inf, CL/F, λz, t1/2, and % AUCext for 1-OH-midazolam and 5-OH-omeprazole, on days 1 and 9, and Cmax, morning predose concentrations (Ctrough), average plasma concentration over the dosing interval (Cave), and area under the plasma concentration-time curve over the dosing interval (AUC0-τ) were presented for the spiro-oxindole compound.
Descriptive statistics (n, mean, geometric mean, standard deviation [SD], % CV, median, minimum, and maximum) were used to summarize plasma midazolam, omeprazole and their metabolites, and the spiro-oxindole compound concentration for all subjects overall at each scheduled time point. Descriptive statistics (as noted above) were also used to summarize plasma omeprazole, 5-OH-omeprazole, and the spiro-oxindole compound concentration for all subjects overall by CYP2C19 genotype at each scheduled time point. Pharmacokinetic parameters were derived by noncompartmental analysis. Descriptive statistics (as noted above) were used to summarize the calculated pharmacokinetic parameters for midazolam, omeprazole and their metabolites, and the spiro-oxindole compound by treatment for all subjects. Descriptive statistics (as noted above) were also used to summarize the calculated pharmacokinetic parameters for omeprazole, 5-OH-omeprazole, and the spiro-oxindole compound by treatment and CYP2C19 genotype. Plots of geometric mean and individual plasma concentrations and of select pharmacokinetic parameters for midazolam, omeprazole and their metabolites and the spiro-oxindole compound at select sampling times were provided. Additionally, plots of individual select pharmacokinetic parameters by CYP2C19 phenotype for omeprazole at select time points were provided.

[4] = Drug-drug interaction study in healthy subjects: pharmacokinetics of the spiro-oxindole compound (Biological Example 5); assay type: in vivo, human
From the text: Pharmacokinetic parameters were derived by noncompartmental analysis.

[5] = test system: CCI model of neuropathic pain; assay: Chronic constriction injury (CCI) model of neuropathic pain; conditions: rat, in vivo

O=C1N(Cc2ccc(C(F)(F)F)o2)c2ccccc2[C@]12COc1cc3c(cc12)OCO3 [spiro-oxindole compound, (S)-1′-{[5-(trifluoromethyl)furan-2-yl]methyl}spiro[furo[2,3-f][1,3]benzodioxole-7,3′-indol]-2′(1′H)-one]
Cmax ([1]; male, Göttingen, minipig, plasma, topical or ocular, 70 mg ointment/kg, minipigs, 21 days of repeated dermal dosing, read-out: mean maximum observed concentration (Cmax) in plasma): 0.015 µg/mL
mean tissue radioactivity concentration ([1]; minipig, bone marrow): 154 ng equivalents spiro-oxindole compound/g
mean tissue radioactivity concentration ([1]; minipig, fat (abdominal / white)): 273 ng equivalents spiro-oxindole compound/g
mean tissue radioactivity concentration ([1]; minipig, fat (brown)): 100 ng equivalents spiro-oxindole compound/g
mean tissue radioactivity concentration ([1]; minipig, gall bladder contents): 4870 ng equivalents spiro-oxindole compound/g
total radioactivity in tissue ([1]; minipig, heart): 18.5 ng equiv spiro-oxindole compound/g
total radioactivity in tissue ([1]; minipig, liver): 74.9 ng equiv spiro-oxindole compound/g
mean tissue radioactivity concentration ([1]; minipig, muscle underlying the dose site): 142 ng equivalents spiro-oxindole compound/g
mean tissue radioactivity concentration ([1]; minipig, skin from the dose site): 25500 ng equivalents spiro-oxindole compound/g
mean tissue radioactivity concentration ([1]; minipig, skin remote from the dose site): 111 ng equivalents spiro-oxindole compound/g
systemic exposure (in words) ([1]; minipigs, repeated daily dermal dosing of 8% ointment): low systemic exposure
contribution to spiro-oxindole compound metabolism (CYP450 2C19 (CYP2C19)): major contributors
contribution to spiro-oxindole compound metabolism (3A4 (CYP3A4)): major contributors
genotoxicity [2]: not genotoxic
skin sensitization [3]: not a skin sensitizer
Geometric LS mean ration (%) (test/reference), omeprazole AUC0-inf (CYP2C19; both): 105.751%
Geometric LS mean ration (%) (test/reference), omeprazole AUC0-t (CYP2C19; both): 101.553%
Geometric LS mean ration (%) (test/reference), omeprazole Cmax (CYP2C19; both): 98.939%
effect on systemic exposure to 5-OH-omeprazole (in words) (CYP2C19; both): no relevant effect on systemic exposure to 5-OH-omeprazole
effect on omeprazole pharmacokinetics (in words) (CYP2C19): no relevant effect on omeprazole pharmacokinetics
relationship of exposure with CYP2C19 phenotype [4]: no apparent relationship
mean plasma concentration at the follow-up visit (360±24 hours) ([4]; after final application of 8% composition): 0.00032629 µg/mL
Cmax ([4]; both sexes, human, plasma, topical, 8 % composition applied to 53% of BSA, BID, day 9, over 24 hours from the final application, read-out: geometric mean Cmax): 0.0151 µg/mL
AUC(0-t) ([4]; both sexes, human, plasma, topical, 8 % composition applied to 53% of BSA, BID, first 12 hours after the final application, read-out: geometric mean AUC0-12): 0.133 µg·h/mL
concentration at 24 hours ([4]; both sexes, human, plasma, topical, 8 % composition applied to 53% of BSA, day 9, after final application of 8% composition (BID, 53% BSA, 7.5 days), read-out: mean plasma concentration at 24 hours postdose): 0.0117 µg/mL
geometric mean Ctrough (predose value) ([4]; day 9, topical 8% composition BID 53% BSA): 0.01276052 µg/mL
average concentration over the 12-hour period ([4]; first 12 hours after the final application): 11075.55 pg/mL
steady state (in words) ([4]; topical BID dosing): steady state had not been achieved after 7.5 days of dosing; also recorded: did not reach steady state within 7.5 days
efficacy compared with gabapentin [5]: comparable efficacy to gabapentin
